Assay results as given in patent US8034904B2, “Anti-IGF-I receptor antibody” (Immunogen Inc., priority 2002, dated 2011).
Positions count from the first letter of the chain named. One block for each molecule: values may come before it.

Assays:
[1] = Bhuyan et al., 1982; cited from earlier work
[2] = tested on: Human non-small cell lung cancer Calu-6 xenografts; assay type: in vivo; settings: established 100 mm^3 Calu-6 xenografts; EM164 0.8 mg/mouse i.v. x6; taxol 15 mg/kg i.p. x5
Source text: Human non-small cell lung cancer Calu-6 xenografts were established in immunodeficient mice by subcutaneous injections of 1×10^7 Calu-6 cells.

[3] = tested on: multiple myeloma; settings: previously untreated stages I or II myeloma; cited from earlier work
[4] = tested on: HT-3 (cervical) cells; test: Growth and survival of HT-3 cells (MTT assay); assay type: cell-based, human; settings: 10 ng/mL IGF-I, 3- to 4-day
Method: (§1) Several human tumor cell lines were tested in serum-free conditions for their growth and survival response to IGF-I. These cell lines were treated with EM164 antibody in the presence of IGF-I, IGF-II, or serum, and their growth and survival responses were measured using an MTT assay after 2-4 days. Approximately 1500 cells were plated in a 96-well plate in regular medium with serum, which was replaced with serum-free medium the following day (either serum-free RPMI medium supplemented with transferrin and BSA, or phenol-red free medium as specified by Dufourny, B. et al., 1997, J. Biol. Chem., 272, 31163-31171). After one day of growth in serum-free medium, the cells were incubated with about 75 μL of 10 μg/mL antibody for 30 min.-3 h, followed by the addition of 25 μL of IGF-I (or IGF-II or serum) solution to obtain a final concentration of 10 ng/mL IGF-I, or 20 ng/mL IGF-II, or 0.04-10% serum. In some experiments, the cells were stimulated first with IGF-I for 15 min before the addition of EM164 antibody, or both IGF-I and EM164 antibody were added together. The cells were then allowed to grow for another 2-3 days. […] The medium was then removed and replaced by 100 μL DMSO, mixed, and the absorbance of the plate was measured at 545 nm.

[5] = tested on: Calu-6 non-small cell lung cancer cells; test: Growth and survival of Calu-6 cells (MTT assay); assay type: cell-based, human; settings: 10 ng/mL IGF-I, 3- to 4-day
Method: (§2) Several human tumor cell lines were tested in serum-free conditions for their growth and survival response to IGF-I. These cell lines were treated with EM164 antibody in the presence of IGF-I, IGF-II, or serum, and their growth and survival responses were measured using an MTT assay after 2-4 days. Approximately 1500 cells were plated in a 96-well plate in regular medium with serum, which was replaced with serum-free medium the following day (either serum-free RPMI medium supplemented with transferrin and BSA, or phenol-red free medium as specified by Dufourny, B. et al., 1997, J. Biol. Chem., 272, 31163-31171). After one day of growth in serum-free medium, the cells were incubated with about 75 μL of 10 μg/mL antibody for 30 min.-3 h, followed by the addition of 25 μL of IGF-I (or IGF-II or serum) solution to obtain a final concentration of 10 ng/mL IGF-I, or 20 ng/mL IGF-II, or 0.04-10% serum. In some experiments, the cells were stimulated first with IGF-I for 15 min before the addition of EM164 antibody, or both IGF-I and EM164 antibody were added together. The cells were then allowed to grow for another 2-3 days. A solution of MTT (3-(4,5)-dimethylthiazol-2-yl)-2,5-diphenyltetrazolium bromide; 25 μL of a 5 mg/mL solution in PBS) was then added and the cells were returned to the incubator for 2-3 h. The medium was then removed and replaced by 100 μL DMSO, mixed, and the absorbance of the plate was measured at 545 nm.

[6] = tested on: NCI-H838 (lung) cells; test: Growth and survival of NCI-H838 cells (MTT assay); assay type: cell-based, human; settings: NCI-H838 (lung); 10 ng/mL IGF-I, 3- to 4-day
Method: as §2

[7] = tested on: SK-LU-1 cells; test: Growth and survival of SK-LU-1 cells (MTT assay); assay type: cell-based, human; settings: 10 ng/mL IGF-I, 3- to 4-day
Method: as §2

[8] = tested on: NCI-H596 cells; test: Growth and survival of NCI-H596 cells (MTT assay); assay type: cell-based, human; settings: 10 ng/mL IGF-I, 3- to 4-day
Method: as §2

[9] = tested on: HT-29 colon cancer cells; test: Growth and survival of HT-29 cells (MTT assay, colony formation); assay type: cell-based, human; settings: HT-29; 10 ng/mL IGF-I, 3- to 4-day
Method: as §2

[10] = tested on: RD (rhabdomyocarcoma) cells; test: Growth and survival of RD cells (MTT assay); assay type: cell-based, human; settings: 10 ng/mL IGF-I, 3- to 4-day
Method: as §2

[11] = tested on: Colo 205 (colon) cells; test: Growth and survival of Colo 205 cells (MTT assay); assay type: cell-based, human; settings: 10 ng/mL IGF-I, 3- to 4-day
Method: as §2

[12] = tested on: SaOS-2 (osteosarcoma) cells; test: Growth and survival of SaOS-2 cells (MTT assay); assay type: cell-based, human; settings: 10 ng/mL IGF-I, 3- to 4-day
Method: as §2

[13] = tested on: SK-N-SH (neuroblastoma) cells; test: Growth and survival of SK-N-SH cells (MTT assay); assay type: cell-based, human; settings: 10 ng/mL IGF-I, 3- to 4-day
Method: as §2

[14] = tested on: MCF-7 cells; test: Cell cycle analysis of MCF-7 cells (propidium iodide, flow cytometry); assay type: cell-based, human; settings: IGF-I 20 ng/mL with or without EM164 20 μg/mL, 1 day
Method: The EM164 antibody caused growth arrest of cells in G0/G1 phase of cell cycle and abrogated the mitogenic effect of IGF-I. For cell cycle analysis, MCF-7 cells were treated with IGF-I (20 ng/mL) in the presence or absence of EM164 (20 μg/mL) for 1 day and then analyzed by propidium iodide staining and flow cytometry.

[15] = tested on: SK-Mel-37 cells; test: Growth and survival of SK-Mel-37 cells (MTT assay); assay type: cell-based, human; settings: 10 ng/mL IGF-I, 3- to 4-day
Method: as §1

[16] = tested on: A 375 (melanoma) cells; test: Growth and survival of A 375 cells (MTT assay); assay type: cell-based, human; settings: 10 ng/mL IGF-I, 3- to 4-day
Method: as §2

[17] = tested on: A 549 cells; test: Growth and survival of A 549 cells (MTT assay); assay type: cell-based, human; settings: 10 ng/mL IGF-I, 3- to 4-day
Method: as §1

[18] = tested on: MCF-7 (breast) cells; test: Growth and survival of MCF-7 cells (MTT assay); assay type: cell-based, human
Method: as §2

[19] = tested on: A 431 (epidermoid) cells; test: Growth and survival of A 431 cells (MTT assay); assay type: cell-based, human; settings: 10 ng/mL IGF-I, 3- to 4-day
Method: as §2

[20] = tested on: biotinylated full-length human IGF-I receptor; test: ELISA binding competition of humanized/chimeric versus murine EM164
Sequence of biotinylated full-length human IGF-I receptor (P08069 31-498 limits assumed): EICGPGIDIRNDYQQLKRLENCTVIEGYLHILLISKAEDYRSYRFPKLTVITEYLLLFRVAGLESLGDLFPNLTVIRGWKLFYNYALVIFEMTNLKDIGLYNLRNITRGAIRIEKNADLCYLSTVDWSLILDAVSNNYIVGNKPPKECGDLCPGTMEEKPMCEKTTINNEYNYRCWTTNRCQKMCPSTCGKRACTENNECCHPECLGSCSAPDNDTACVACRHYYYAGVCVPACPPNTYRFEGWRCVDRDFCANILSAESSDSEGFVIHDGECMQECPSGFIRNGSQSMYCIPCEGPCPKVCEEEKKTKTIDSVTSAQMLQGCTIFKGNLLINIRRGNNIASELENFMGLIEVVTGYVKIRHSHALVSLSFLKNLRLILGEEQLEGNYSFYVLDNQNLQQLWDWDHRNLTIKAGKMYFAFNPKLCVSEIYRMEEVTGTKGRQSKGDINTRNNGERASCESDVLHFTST
Method: The affinities of the humanized EM164 antibody versions 1.0-1.3 were compared to those of murine EM164 antibody through binding competition assays using biotinylated full-length human IGF-I receptor or myc-epitope tagged truncated IGF-I receptor alpha chain, as described above. Humanized EM164 antibody samples were obtained by transient transfection of the appropriate expression vectors in human embryonic kidney 293T cells, and antibody concentrations were determined by ELISA using purified humanized antibody standards. For ELISA binding competition measurements, mixtures of humanized antibody samples and various concentrations of murine EM164 antibody were incubated with indirectly captured biotinylated full-length IGF-I receptor or myc-epitope tagged truncated IGF-I receptor alpha chain. After equilibration, the bound humanized antibody was detected using a goat-anti-human-Fab′2-antibody-horseradish peroxidase conjugate. Plots of ([bound murine Ab]/[bound humanized Ab]) vs ([murine Ab]/[humanized Ab]), which theoretically yield a straight line with slope=(Kd humanized Ab/Kd murine Ab), were used to determine the relative affinities of the humanized and murine antibodies.
An Immulon-2HB ELISA plate was coated with 100 μL of 5 μg/mL streptavidin per well in carbonate buffer at ambient temperature for 7 h. […] The wells were then washed with TBS-T buffer and incubated with goat-anti-human-Fab′2-antibody-horseradish peroxidase conjugate for 1 h (100 μL; 1 μg/mL in blocking buffer), followed by washes and detection using ABTS/H2O2 substrate at 405 nm.

[21] = target: biotinylated human IGF-I receptor; test: ELISA binding titration (Kd) with biotinylated IGF-I receptor; settings: ELISA titration, non-linear regression for one-site binding; read-out: dissociation constant (Kd)
Sequence of biotinylated human IGF-I receptor (P08069 31-736 limits assumed): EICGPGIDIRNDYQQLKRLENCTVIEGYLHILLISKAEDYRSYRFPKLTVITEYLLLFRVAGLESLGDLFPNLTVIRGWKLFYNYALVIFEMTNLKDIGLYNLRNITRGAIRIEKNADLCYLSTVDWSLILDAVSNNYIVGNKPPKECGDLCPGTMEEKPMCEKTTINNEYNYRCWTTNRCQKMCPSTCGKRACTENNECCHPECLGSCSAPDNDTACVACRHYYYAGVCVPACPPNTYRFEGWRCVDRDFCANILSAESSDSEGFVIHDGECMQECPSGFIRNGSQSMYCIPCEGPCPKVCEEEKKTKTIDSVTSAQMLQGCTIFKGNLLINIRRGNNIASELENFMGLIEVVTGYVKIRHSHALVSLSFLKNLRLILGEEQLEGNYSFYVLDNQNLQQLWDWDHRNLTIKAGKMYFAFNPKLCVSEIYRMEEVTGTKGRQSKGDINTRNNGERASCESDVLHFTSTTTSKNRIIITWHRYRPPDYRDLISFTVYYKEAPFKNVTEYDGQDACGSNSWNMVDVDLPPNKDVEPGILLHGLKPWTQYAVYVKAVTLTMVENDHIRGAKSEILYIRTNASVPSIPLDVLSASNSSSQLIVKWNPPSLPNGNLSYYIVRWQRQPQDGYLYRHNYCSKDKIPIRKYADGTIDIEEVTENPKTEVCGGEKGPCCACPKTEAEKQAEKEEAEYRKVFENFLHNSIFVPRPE
Sequence of biotinylated human IGF-I receptor (P08069 741-935 limits assumed): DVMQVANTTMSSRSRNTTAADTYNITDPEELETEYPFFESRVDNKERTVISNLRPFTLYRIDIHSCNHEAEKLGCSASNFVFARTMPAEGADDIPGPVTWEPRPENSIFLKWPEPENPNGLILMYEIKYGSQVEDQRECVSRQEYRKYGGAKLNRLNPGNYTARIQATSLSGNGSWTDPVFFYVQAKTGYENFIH
Method: The wells were next washed with TBS-T buffer and incubated with goat-anti-mouse-IgGH+L-antibody-horseradish peroxidase conjugate (100 μL; 0.5 μg/mL in blocking buffer), followed by washes and detection using ABTS/H2O2 substrate at 405 nm. The value of Kd was estimated by non-linear regression for one-site binding.
A similar binding titration was carried out using the Fab fragment of EM164 antibody, prepared by papain digestion of the antibody as described by E. Harlow and D. Lane (“Using Antibodies: A Laboratory Manual”; 1999, Cold Spring Harbor Laboratory Press, New York).

Molecule: COc1c(O)c2c(c3cc(C(=O)N4CCc5c4c(O)c(OC)c4[nH]c(C(=O)N6CC7CC78C6=CC(=O)c6[nH]cc(C)c68)cc54)[nH]c13)CCN2C(N)=O (stereo not shown) [CC-1065]
potency in vitro relative to doxorubicin, methotrexate and vincristine [1]: about 1000 fold

Molecule: CC(=O)O[C@H]1C(=O)[C@@]2(C)[C@H]([C@H](OC(=O)c3ccccc3)[C@]3(O)C[C@H](OC(=O)[C@H](O)[C@@H](NC(=O)c4ccccc4)c4ccccc4)C(C)=C1C3(C)C)[C@]1(OC(C)=O)CO[C@@H]1C[C@@H]2O [taxol, reference compound]
growth of tumors [2]: effective until day 14

Molecule: IFN-α
patients who responded to treatment [3]: 7 of 14

Molecule: IGF-I: insulin-like growth factor-I, ligand of the IGF-I receptor used as growth stimulant [reference compound]
Fold growth response to IGF-I (MTT assay: ratio for IGF-I treated vs untreated cells in serum-free medium) [4]: 2
Fold growth response to IGF-I (MTT assay: ratio for IGF-I treated vs untreated cells in serum-free medium) [5]: 1.6-1.8
Fold growth response to IGF-I (MTT assay: ratio for IGF-I treated vs untreated cells in serum-free medium) [6]: 3
Fold growth response to IGF-I (MTT assay: ratio for IGF-I treated vs untreated cells in serum-free medium) [7]: 1.4
Fold growth response to IGF-I (MTT assay: ratio for IGF-I treated vs untreated cells in serum-free medium) [8]: 1.4
Fold growth response to IGF-I (MTT assay: ratio for IGF-I treated vs untreated cells in serum-free medium) [9]: 1.5
Fold growth response to IGF-I (MTT assay: ratio for IGF-I treated vs untreated cells in serum-free medium) [10]: 1.7
Fold growth response to IGF-I (MTT assay: ratio for IGF-I treated vs untreated cells in serum-free medium) [11]: 2.3
Fold growth response to IGF-I (MTT assay: ratio for IGF-I treated vs untreated cells in serum-free medium) [12]: 2.5
Fold growth response to IGF-I (MTT assay: ratio for IGF-I treated vs untreated cells in serum-free medium) [13]: 2
cells in the G0/G1 phase [14]: 50%
cells in the S phase [14]: 41%
Fold growth response to IGF-I (MTT assay: ratio for IGF-I treated vs untreated cells in serum-free medium) [15]: 1.4
Fold growth response to IGF-I (MTT assay: ratio for IGF-I treated vs untreated cells in serum-free medium) [16]: 1.6
Fold growth response to IGF-I (MTT assay: ratio for IGF-I treated vs untreated cells in serum-free medium) [17]: 1.2
Fold growth response to IGF-I (MTT assay: ratio for IGF-I treated vs untreated cells in serum-free medium) ([18]; MCF-7 (breast), 10 ng/mL IGF-I, 3- to 4-day): 1.7-2.8
Fold growth response to IGF-I (MTT assay: ratio for IGF-I treated vs untreated cells in serum-free medium) [19]: 2.2

lower affinity than murine EM164 antibody for binding to IGF-I receptor [20]: 3 fold
slope in binding competition with murine EM164 antibody ([20]; similar binding competition): about 3
B1: chimeric version of EM164 antibody with 92F→C mutation: chimeric version of EM164 antibody with 92F→C mutation in heavy chain (antibody, V domains shown)
VH: QVQLQQSGAELVKPGASVKLSCKASGYTFTSYWMHWVKQRPGQGLEWIGEINPSNGRTNYNEKFKRKATLTVDKSSSTAYMQLSSLTSEDSAVYYCARGRPDYYGSSKWYFDVWGAGTTVTVSS
VL: DVLMTQTPLSLPVSLGDQASISCRSSQSIVHSNVNTYLEWYLQKPGQSPKLLIYKVSNRFSGVPDRFSGSGSGTDFTLRISRVEAEDLGIYYCFQGSHVPPTFGGGTKLEIK

Kd [21]: 0.3 nM
B2: Fab fragment of EM164 antibody: Fab fragment of EM164 antibody, prepared by papain digestion (antibody, V domains shown)
VH: QVQLQQSGAELVKPGASVKLSCKASGYTFTSYWMHWVKQRPGQGLEWIGEINPSNGRTNYNEKFKRKATLTVDKSSSTAYMQLSSLTSEDSAVYYFARGRPDYYGSSKWYFDVWGAGTTVTVS
VL: DVLMTQTPLSLPVSLGDQASISCRSSQSIVHSNVNTYLEWYLQKPGQSPKLLIYKVSNRFSGVPDRFSGSGSGTDFTLRISRVEAEDLGIYYCFQGSHVPPTFGGGTKLEIKR

slope (=Kd humanized Ab / Kd murine Ab) ([20]; biotinylated IGF-I receptor, FIG. 11, r^2=0.996): 0.52
B3: humanized EM164 v1.0: resurfaced EM164 with all 10 human surface residues (light chain aa3 V, aa45 R) (antibody, V domains shown)
VH: B2 VH with Q5V, L11V, E62Q, K65Q, R66G, A116Q
VL: B2 VL with L3V, Q18P, K50R, S72A
inhibition of serum-stimulated growth and survival of MCF-7 cells, compared with murine EM164 [18]: similar
